We go through 30 molecules from patent US12492183B2, “Tetrahydroquinazoline derivatives as selective cytotoxic agents” (Merck Sharp & Dohme LLC, priority 2020, dated 2025).

pEC50: −log10 of the molar value.

The assay has as its system PBMCs infected with VSV-G pseudotyped HIV virus (VSV-G/pNLG1-P2A-ΔEnv). The experiment in a line: cells. To be noted: Homo sapiens, PBMC, read-out: TACK EC50. Type of assay: cell-based.

Usually pEC50 stands for −log10 of the EC50, conventionally taken in molar units. As for `Nc1nccc(Cc2cc3c(cc2Cl)[C@@](C#CC2CC2)(C(F)(F)F)NC(=O)N3)n1` [Example 31, (S)-7-((2-aminopyrimidin-4-yl)methyl)-6-chloro-4-(cyclo-propylethynyl)-4-(trifluoro-methyl)-3,4-dihydroquinazo-lin-2(1H)-one], the pEC50 was 7.23. In the case of `Nc1ncc(F)c(Cc2cc3c(cc2Cl)[C@@](C#CC2CC2)(C(F)(F)F)NC(=O)N3)n1` [Example 32, (S)-7-((2-amino-5-fluoropyr-imidin-4-yl)methyl)-6-chloro-4-(cyclopropylethynyl)-4-(trifluoromethyl)-3,4-dihydro-quinazolin-2(1H)-one], the pEC50 is 6.81. The figure for `Cc1cc2c(cc1Cc1ccnc(N)n1)NC(=O)N[C@]2(C#CC1CC1)C(F)(F)F` [Example 33, (S)-7-((2-aminopyrimidin-4-yl)methyl)-4-(cyclopropyl-ethynyl)-6-methyl-4-(trifluoro-methyl)-3,4-dihydroquinazo-lin-2(1H)-one] is 6.74. The figure for `Cc1cnc(N)nc1Cc1ccc2c(c1)NC(=O)N[C@]2(C#CC1CC1)C(F)(F)F` [Example 34, (S)-7-((2-amino-5-methylpyr-imidin-4-yl)methyl)-4-(cyclo-propylethynyl)-4-(trifluoro-methyl)-3,4-dihydroquinazo-lin-2(1H)-one] is 6.81. Turning to `Nc1cccc(Cc2ccc3c(c2)NC(=O)N[C@]3(C#CC2CC2)C(F)(F)F)n1` [Example 35, (S)-7-((6-aminopyridin-2-yl)methyl)-4-(cyclopropylethynyl)-4-(trifluoromethyl)-3,4-dihydroquinazolin-2(1H)-one], the pEC50 was 6.97. The figure for `Nc1ccc(F)c(Cc2ccc3c(c2)NC(=O)N[C@]3(C#CC2CC2)C(F)(F)F)n1` [Example 36, (S)-7-((6-amino-3-fluoro-pyridin-2-yl)methyl)-4-(cyclopropylethynyl)-4-(trifluoromethyl)-3,4-dihydroquinazolin-2(1H)-one] is 6.81; for `Nc1cc(Cc2ccc3c(c2)NC(=O)N[C@]3(C#CC2CC2)C(F)(F)F)c(F)cn1` [Example 37, (S)-7-((2-amino-5-fluoro-pyridin-4-yl)methyl)-4-(cyclopropylethynyl)-4-(trifluoromethyl)-3,4-dihydroquinazolin-2(1H)-one] it is 6.77; for `Nc1nccc(Cc2cc3c(cc2F)[C@@](C#CC2CC2)(C(F)(F)F)NC(=O)N3)n1` [Example 38, (S)-7-((2-aminopyrimidin-4-yl)methyl)-4-(cyclopropylethynyl)-6-fluoro-4-(trifluoromethyl)-3,4-dihydroquinazolin-2(1H)-one] it is 7.41. As for `CN1C(=O)Nc2cc(Cc3ccnc(N)n3)ccc2[C@@]1(C#CC1CC1)C(F)(F)F` [Example 39, (S)-7-((2-aminopyrimidin-4-yl)methyl)-4-(cyclopropylethynyl)-3-methyl-4-(trifluoromethyl)-3,4-dihydroquinazolin-2(1H)-one], the figure is 7.22. As for `O=C1Nc2cc(Cc3ccc(CO)cn3)c(F)cc2[C@@](C#CC2CC2)(C(F)(F)F)N1` [Example 41, (S)-2-((4-(cyclopropylethynyl)-6-fluoro-2-oxo-4-(trifluoromethyl)-1,2,3,4-tetrahydroquinazolin-7-yl)methyl)-5-(hydroxymethyl)pyridin-1-ium 2,2,2-trifluoroacetate], the figure is 7.04; as for `O=C1Nc2cc(Cc3ccc(OCCO)cn3)c(F)cc2[C@@](C#CC2CC2)(C(F)(F)F)N1` [Example 42, (S)-4-(cyclopropylethynyl)-6-fluoro-7-((5-(2-hydroxyethoxy)pyridin-2-yl)methyl)-4-(trifluoromethyl)-3,4-dihydroquinazolin-2(1H)-one], 6.79; as for `N#Cc1cc(Cc2cc3c(cc2F)[C@@](C#CC2CC2)(C(F)(F)F)NC(=O)N3)[n+]([O-])cc1OCCO` [Example 43, (S)-4-cyano-2-((4-(cyclopropylethynyl)-6-fluoro-2-oxo-4-(trifluoromethyl)-1,2,3,4-tetrahydroquinazolin-7-yl)methyl)-5-(2-hydroxyethoxy)pyridine 1-oxide], 6.78. Take `NS(=O)(=O)c1ccc(Cc2ccc3c(c2)NC(=S)N[C@]3(C#CC2CC2)C(F)(F)F)cc1` [Example 44, (S)-4-((4-(cyclopropylethynyl)-2-thioxo-4-(trifluoromethyl)-1,2,3,4-tetrahydroquinazolin-7-yl)methyl)benzenesulfonamide]: the pEC50 was 6.74.

With `Nc1nc(Cc2ccc3c(c2)NC(=O)N[C@]3(C#CC2CC2)C(F)(F)F)ccc1CO` [Example 45, (S)-7-((6-amino-5-(hydroxymethyl)pyridin-2-yl)methyl)-4-(cyclopropylethynyl)-4-(trifluoromethyl)-3,4-dihydroquinazolin-2(1H)-one], the pEC50 was 7.27. The figure for `Nc1nc(Cc2cc3c(cc2F)[C@@](C#CC2CC2)(C(F)(F)F)NC(=O)N3)cnc1CO` [Example 46, (S)-7-((6-amino-5-(hydroxymethyl)pyrazin-2-yl)methyl)-4-(cyclopropylethynyl)-6-fluoro-4-(trifluoromethyl)-3,4-dihydroquinazolin-2(1H)-one] is 6.97. Turning to `CC(F)(F)[C@@]1(C#CC2CC2)NC(=O)Nc2cc(Cc3ccnc(N)n3)c(F)cc21` [Example 47, (S)-7-((2-aminopyrimidin-4-yl)methyl)-4-(cyclopropylethynyl)-4-(1,1-difluoroethyl)-6-fluoro-3,4-dihydroquinazolin-2(1H)-one], the pEC50 was 7.77.

For the molecule `Nc1nc(Cl)cc(Cc2ccc3c(c2)NC(=O)N[C@]3(C#CC2CC2)C(F)(F)F)n1` [Example 48, (S)-7-((2-amino-6-chloropyrimidin-4-yl)methyl)-4-(cyclopropylethynyl)-4-(trifluoromethyl)-3,4-dihydroquinazolin-2(1H)-one], the pEC50 is 6.85. The figure for `Nc1ncnc(Cc2ccc3c(c2)NC(=O)N[C@]3(C#CC2CC2)C(F)(F)F)n1` [Example 49, (S)-7-((4-amino-1,3,5-triazin-2-yl)methyl)-4-(cyclopropyl-ethynyl)-4-(trifluoromethyl)-3,4-dihydroquinazolin-2(1H)-one] is 6.84. As for `N#Cc1c(Cc2ccc3c(c2)NC(=O)N[C@]3(C#CC2CC2)C(F)(F)F)ccnc1N` [Example 50, (S)-2-amino-4-((4-(cyclo-propylethynyl)-2-oxo-4-(trifluoromethyl)-1,2,3,4-tetrahydroquinazolin-7-yl)-methyl)nicotinonitrile], the figure is 7.46. As for `O=C1Nc2cc(Cc3cnccn3)c(F)cc2[C@@](C#CC2CC2)(C(F)(F)F)N1` [Example 51, (S)-4-(cyclopropylethynyl)-6-fluoro-7-(pyrazin-2-ylmeth-yl)-4-(trifluoromethyl)-3,4-dihydroquinazolin-2(1H)-one], the figure is 7.02. For the molecule `N#Cc1c(Cc2cc3c(cc2F)[C@@](C#CC2CC2)(C(F)(F)F)NC(=O)N3)ccnc1N` [Example 52, (S)-2-amino-4-((4-(cyclo-propylethynyl)-6-fluoro-2-oxo-4-(trifluoromethyl)-1,2,3,4-tetrahydroquinazolin-7-yl)methyl)nicotinonitrile], the pEC50 was 7.67. For `O=C1Nc2cc(Cc3ccccn3)c(F)cc2[C@@](C#CC2CC2)(C(F)(F)F)N1` [Example 53, (S)-4-(cyclopropylethynyl)-6-fluoro-7-(pyridin-2-ylmeth-yl)-4-(trifluoromethyl)-3,4-dihydroquinazolin-2(1H)-one], the pEC50 is 6.86.

In the case of `Nc1cncc(Cc2ccc3c(c2)NC(=O)N[C@]3(C#CC2CC2)C(F)(F)F)n1` [Example 54, (S)-7-((6-aminopyrazin-2-yl)-methyl)-4-(cyclopropyl-ethynyl)-4-(trifluoromethyl)-3,4-dihydroquinazolin-2(1H)-one], the pEC50 was 7.17. As to `NC(=O)c1c(Cc2ccc3c(c2)NC(=O)N[C@]3(C#CC2CC2)C(F)(F)F)ccnc1N` [Example 55], the pEC50 was 6.72. The figure for `N#Cc1cnccc1Cc1cc2c(cc1F)[C@@](C#CC1CC1)(C(F)(F)F)NC(=O)N2` [Example 56, (S)-4-((4-(cyclopropylethynyl)-6-fluoro-2-oxo-4-(trifluoromethyl)-1,2,3,4-tetrahydroquinazolin-7-yl)methyl)nicotinonitrile] is 7.08; for `O=C1Nc2cc(Cc3ccncc3)c(F)cc2[C@@](C#CC2CC2)(C(F)(F)F)N1` [Example 57, (S)-4-(cyclopropylethynyl)-6-fluoro-7-(pyridin-4-ylmethyl)-4-(trifluoromethyl)-3,4-dihydroquinazolin-2(1H)-one] it is 6.92. The figure for `CC(F)(F)[C@@]1(C#CC2CC2)NC(=O)Nc2cc(Cc3nc(N)ncc3F)ccc21` [Example 58, (S)-7-((2-amino-5-fluoropyrimidin-4-yl)methyl)-4-(cyclopropylethynyl)-4-(1,1-difluoroethyl)-3,4-dihydroquinazolin-2(1H)-one] is 7.08; for `Nc1nccc(Cc2c(F)cc3c(c2F)NC(=O)N[C@]3(C#CC2CC2)C(F)(F)F)n1` [Example 59, (S)-7-((2-aminopyrimidin-4-yl)methyl)-4-(cyclopropylethynyl)-6,8-difluoro-4-(trifluoromethyl)-3,4-dihydroquinazolin-2(1H)-one] it is 6.91; for `O=C1Nc2cc(Cc3ncc[nH]c3=O)ccc2[C@@](C#CC2CC2)(C(F)(F)F)N1` [Example 61, (S)-4-(cyclopropylethynyl)-7-((3-hydroxypyrazin-2-yl)methyl)-4-(trifluoromethyl)-3,4-dihydroquinazolin-2(1H)-one] it is 7.19. The figure for `Cc1nc(CO)[nH]c(=O)c1Cc1ccc2c(c1)NC(=O)N[C@]2(C#CC1CC1)C(F)(F)F` [Example 63, (S)-4-(cyclopropylethynyl)-7-((2-(hydroxymethyl)-4-methyl-6-oxo-1,6-dihydropyrimidin-5-yl)methyl)-4-(trifluoromethyl)-3,4-dihydroquinazolin-2(1H)-one] is 6.75.
